Test results: the supplement of paper PMC10307832

What was measured:
Test in all cases: relative viability (nuclei count vs DMSO), 5 days (fraction); higher = more cells survive
[1] = compound: CCOc1cc2ncc(C#N)c(Nc3ccc(OCc4ccccn4)c(Cl)c3)c2cc1NC(=O)/C=C/CN(C)C [Neratinib] + CC1(C)CCC(c2ccc(Cl)cc2)=C(CN2CCN(c3ccc(C(=O)NS(=O)(=O)c4ccc(N[C@H](CCN5CCOCC5)CSc5ccccc5)c(S(=O)(=O)C(F)(F)F)c4)cc3)CC2)C1 [Navitoclax] (partner 0.5 µM)
How it was run: (§1)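 Lung cancer cell lines in 1536-well plates were dosed by pin tool the day after seeding, either with one drug alone or with a fixed anchor-drug dose plus five library-drug doses (not always all listed) in √10 steps. After 5 days, cells were fixed and their nuclei stained in one step (final 0.05% Triton X-100, 1% formaldehyde, 1 ug/ml Hoechst), then counted on 4× images. Relative viability is the nuclei count in treated wells divided by that in vehicle wells. Values are medians of duplicate plates.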

[2] = compound: CCOc1cc2ncc(C#N)c(Nc3ccc(OCc4ccccn4)c(Cl)c3)c2cc1NC(=O)/C=C/CN(C)C [Neratinib] + C[C@@H](Oc1cc(-c2cnn(C3CCNCC3)c2)cnc1N)c1c(Cl)ccc(F)c1Cl [Crizotinib] (partner 1 µM)
How it was run: as §1

[3] = compound: CCOc1cc2ncc(C#N)c(Nc3ccc(OCc4ccccn4)c(Cl)c3)c2cc1NC(=O)/C=C/CN(C)C [Neratinib] + Cc1nc(Nc2ncc(C(=O)Nc3c(C)cccc3Cl)s2)cc(N2CCN(CCO)CC2)n1 [Dasatinib] (partner 0.075 µM)
How it was run: as §1

[4] = compound: CCOc1cc2ncc(C#N)c(Nc3ccc(OCc4ccccn4)c(Cl)c3)c2cc1NC(=O)/C=C/CN(C)C [Neratinib] + O=C(CCCCCCC(=O)Nc1ccccc1)NO [Vorinostat] (partner 1 µM)
How it was run: as §1

Cell Line	relative viability ([1]; first compound 0.01 µM)	relative viability ([1]; first compound 0.03162 µM)	relative viability ([1]; first compound 0.1 µM)	relative viability ([1]; first compound 0.3162 µM)	relative viability ([1]; first compound 1 µM)	relative viability ([2]; first compound 0.01 µM)	relative viability ([2]; first compound 0.03162 µM)	relative viability ([2]; first compound 0.1 µM)	relative viability ([2]; first compound 0.3162 µM)	relative viability ([2]; first compound 1 µM)	relative viability ([3]; first compound 0.01 µM)	relative viability ([3]; first compound 0.03162 µM)	relative viability ([3]; first compound 0.1 µM)	relative viability ([3]; first compound 0.3162 µM)	relative viability ([3]; first compound 1 µM)	relative viability ([4]; first compound 0.01 µM)	relative viability ([4]; first compound 0.03162 µM)	relative viability ([4]; first compound 0.1 µM)	relative viability ([4]; first compound 0.3162 µM)	relative viability ([4]; first compound 1 µM)
RERF-LC-KJ	0.854	1.07	0.724	0.69	0.493	0.847	0.817	0.795	0.701	0.633	0.941	0.822	0.681	0.653	0.335	0.705	0.742	0.55	0.66	0.382
SW 900	–	–	–	–	–	–	–	–	–	–	0.544	0.732	0.392	0.458	0.454	0.414	0.738	0.473	0.451	0.506
LCLC-103H	–	–	–	–	–	1.09	0.989	0.88	0.892	0.884	0.551	0.5	0.415	0.375	0.346	–	0.822	0.72	0.796	0.775
NCI-H661	–	–	–	–	–	1.06	0.983	0.989	0.828	0.343	0.924	0.741	0.5	0.317	0.338	0.866	0.729	0.583	0.657	0.445
IA-LM	0.814	0.774	–	0.65	0.494	0.981	0.799	0.681	0.766	0.536	–	–	–	–	–	0.983	1	–	0.924	0.715
NCI-H1563	–	–	–	–	–	0.918	0.802	0.788	0.758	0.638	0.513	0.485	0.499	0.41	0.332	–	–	–	–	–
HCC-44	1.1	0.978	0.867	0.951	0.917	0.821	0.8	0.727	0.806	0.851	–	–	–	–	–	1.11	1.09	1.12	1.1	1.09
NCI-H2342	–	–	–	–	–	–	–	–	–	–	0.326	0.318	0.285	0.26	0.318	0.797	0.88	0.647	0.585	0.54
NCI-H358	–	–	–	–	–	0.65	0.409	0.391	0.161	0.182	0.131	0.131	0.104	0.146	0.126	0.659	0.538	0.282	0.148	0.106
ABC-1	–	–	–	–	–	1.47	0.954	1.06	0.668	0.537	0.638	–	0.593	0.455	0.349	1.57	–	0.813	1.13	0.713
NCI-H522	–	–	–	–	–	–	–	–	–	–	0.94	0.809	0.818	0.786	0.664	1.04	1.01	0.678	0.718	0.626
NCI-H1792	0.622	0.833	0.612	–	0.591	1.1	1.09	0.931	0.867	0.872	0.769	0.905	0.738	0.684	0.368	–	–	–	–	–
